Assay results as given in patent publication US20250257332A1, “TRUNCATED AND FUSION PROTEINS” (Monash University, priority 2021, published 2025).
“Also recorded” adds a separate entry of the source.

Experiments:
C2C12 myoblasts = test: C2C12 myoblast proliferation by EdU incorporation; type: cell-based, mouse; conditions: for effect on NAMPT-induced increase in myoblast proliferation: co-administration with NAMPT
Method: FIG. 2. […] In vitro assay assessing the effects of exogenously introduced factors on C2C12 myoblast proliferation. Proliferation is identified by EdU incorporation. […] Mean+S.D. Two-way ANOVA with Tukey's multiple comparison test. […] Mean±SEM
The mouse muscle cell line C2C12 (Yaffe, D. & Saxel, O. Serial passaging and differentiation of myogenic cells isolated from dystrophic mouse muscle. Nature 270, 725 (1977) were cultured in growth media (Dulbecco's Modified Eagle Medium (4.5 g/l D-Glucose, No L Glutamine, No Sodium Pyruvate (Gibco))+20% Fetal Bovine Solution-One Shot (Gibco)+1% Glut Max 100×(Gibco)). Cells were maintained at 37° C., 5% CO2. Cells at 70% confluence, passage 8 were extracted from T75 flasks with 0.025% Tryspin EDTA (Gibco), neutralised in growth media, spun at 180×g for 5 min to pellet cells. The cells were then resuspended in 10 ml of fresh growth media. 500 μl of cells were plated on a 8-well on cover glass II (Sarstedt) chamber slide at a density of 1×10^3 cells/ml. Cells were left 4 h at 37° C. to re-attach. For drug treatments, the media were supplemented with appropriate doses and cultured for 6 h.

[1] = system: C2C12 murine myoblast cells; test: C2C12 cell proliferation, CyQuant Proliferation Assay kit; type: cell-based, mouse; conditions: 20 nM, 48 hours, compared with full-length NAMPT
Method: FIG. 7. Human NAMPT variants stimulate muscle progenitor proliferation. C2C12 mouse myoblasts were treated with 20 nM full length NAMPT (NAMPT) or NAMPT variants for (NAMPTxxx-xxx, where xxx are amino acid numbers) 48 hours. Quantification of cell proliferation was performed using CyQuant Proliferation Assay kit. […] Box and whiskers denote median with minimum and maximum values. n=4-5 independent experiments per protein. Statistical significance is indicated as exact p-value. […] Significance between conditions were analysed by one-way ANOVA with Tukey post-hoc test.
Human NAMPTcif (hNAMPTcif) and truncated variants of hNAMPTcif were designed by progressively removing N-terminal regions containing positively charged amino acids. Four truncations were produced and numbered T1 to T4. […] Quantification of proliferation was performed using commercially-available CyQuant Proliferation Assay kit (Thermo Fisher Scientific) according to manufacturer's instructions and read using a Synergy H1 plate reader (BioTek). […]
The heparin-binding sequence of placenta growth factor 2 (PIGF2) was fused to the N-terminus of NAMPTcif and produced using a bacterial expression system. […] Quantification of proliferation was performed using commercially-available CyQuant Proliferation Assay kit (Thermo Fisher Scientific) according to manufacturer's instructions and read using a Synergy H1 plate reader (BioTek). […]

TLR4 = molecular target: T1, TLR4 (Homo sapiens, UniProt O00206); test: TLR4 signalling assay in HEK-Blue TLR4 reporter cells; type: cell-based; conditions: 19 nM; 24 hours; plus 5 ug/ml polymyxin B
T1 construct: host or cells: HEK-Blue TLR4 reporter cell line
T1 sequence (O00206 24-839): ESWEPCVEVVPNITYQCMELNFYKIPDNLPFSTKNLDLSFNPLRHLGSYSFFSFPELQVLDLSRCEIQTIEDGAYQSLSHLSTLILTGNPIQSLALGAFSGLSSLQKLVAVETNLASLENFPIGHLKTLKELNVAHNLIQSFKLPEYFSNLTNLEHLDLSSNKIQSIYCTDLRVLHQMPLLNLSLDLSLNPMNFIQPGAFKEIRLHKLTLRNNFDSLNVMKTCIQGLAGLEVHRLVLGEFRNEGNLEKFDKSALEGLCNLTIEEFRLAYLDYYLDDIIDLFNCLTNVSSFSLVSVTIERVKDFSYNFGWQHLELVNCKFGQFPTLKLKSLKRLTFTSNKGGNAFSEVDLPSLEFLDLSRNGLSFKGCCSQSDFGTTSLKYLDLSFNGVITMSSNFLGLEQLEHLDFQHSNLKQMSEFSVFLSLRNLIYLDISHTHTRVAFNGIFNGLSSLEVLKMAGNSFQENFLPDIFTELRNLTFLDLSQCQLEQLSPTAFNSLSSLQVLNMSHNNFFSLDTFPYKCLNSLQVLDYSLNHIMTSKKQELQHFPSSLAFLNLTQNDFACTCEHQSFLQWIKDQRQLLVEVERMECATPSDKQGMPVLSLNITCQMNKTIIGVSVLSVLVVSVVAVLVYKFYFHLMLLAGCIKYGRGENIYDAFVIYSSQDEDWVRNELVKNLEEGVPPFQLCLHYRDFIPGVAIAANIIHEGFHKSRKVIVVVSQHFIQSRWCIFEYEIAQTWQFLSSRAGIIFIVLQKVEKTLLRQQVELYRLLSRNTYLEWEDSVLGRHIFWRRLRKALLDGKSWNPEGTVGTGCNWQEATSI
T1 sequence (Q9Y6Y9 17-160 partner limits assumed): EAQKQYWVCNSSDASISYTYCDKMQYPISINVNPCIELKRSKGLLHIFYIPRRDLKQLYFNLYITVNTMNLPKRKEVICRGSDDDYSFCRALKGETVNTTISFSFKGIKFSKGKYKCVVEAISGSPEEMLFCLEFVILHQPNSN
Method: TLR4 receptor activation was assayed using the HEK-Blue TLR4 reporter cell line (InvivoGen). In this cell line, TLR4 and downstream NFκB signalling induces expression and secretion of alkaline phosphatase that can be quantified via colorimetric assay. HEK-Blue cells were treated for 24 hours with 19 nM of NAMPTcif or PIGF-NAMPTcif plus 5 ug/ml polymyxin B to ensure no TLR4 activation by any trace amounts of endotoxin. TLR4 activity was reported as the equivalent amount of activation by bacterial lipopolysaccharides (LPS), thus a standard curve was generated by serial dilutions of LPS from 0.01 to 20 ng/ml. Detection of alkaline phosphatase activity was performed using a QUANTI-Blue kit (InvivoGen) according to manufacturer's instructions and plates were read using a Synergy H1 plate reader (BioTek). Data were presented as equivalent LPS concentration in ng/ml. A one-way ANOVA with Dunnett's multiple comparisons test was performed to determine statistical significance.

[2] = system: Human primary endothelial cells derived from umbilical vein; test: Human primary endothelial cell proliferation, CyQuant; type: cell-based; conditions: 20 nM; 48 hours
Method: FIG. 9. Human NAMPT variants stimulate human endothelial cell proliferation. Human primary endothelial cells derived from umbilical vein were treated with 20 nM full length NAMPT (NAMPT) or NAMPT variants (NAMPTxxx-xxx, where xxx are amino acid numbers) for 48 hours. Quantification of cell proliferation was performed using CyQuant Proliferation Assay kit. […] Treatment with 10% FBS was used as a positive control. Box and whiskers denote median with minimum and maximum values. n=6 independent experiments per protein. Statistical significance is indicated as p-value and determined by one-sample t-test.
Similarly, the inventors next investigated the activity of full length NAMPT, NAMPT402-491 and NAMPT422-491 on human endothelial cell proliferation. Human endothelial cells were derived from umbilical vein and treated with 20 nM full length NAMPT (NAMPT) or NAMPT variants for 48 hours.

[3] = system: volumetric muscle loss injury of the rectus femoris muscle
Method: Injury: male C57BL/6J mice aged between 10-12 weeks were anesthetised and shaved on the hind left leg. A unilateral incision measuring approximately 1 cm was made exposing the underlying fascia. The left hind limb was extended and exteriorised via the incision site by retracting the surrounding tissue. A 3×4 mm full thickness segment of the rectus femoris muscle was removed. Directly after, the injury site was filled with fibrin hydrogel with or without 200 ng or 500 ng of hrNAMPT (1) (hydrogel components; 40 μl, 8 mg/ml human fibrinogen (FIB3, Enzyme Research Laboratories), 4 U/ml bovine thrombin (T4648, Sigma), 5 mM CaCI2, 17 μg/ml of aprotinin (ab146286, Abcam)) which polymerized in the defect. Then, the soft tissue was closed with stitches.
Histology: 10 days after treatment, animals were sacrificed and the wounds were harvested for histological analysis. The defect site and associated proximal and distal segment of the quadriceps muscle (including the rectus femoris, vastus medialis and vastus lateralis) were excised and embedded. Histological analysis was performed on serial paraffin sections (4 μm sections collected passing the central portion of the wound). Multiple sections were stained with Masson's Trichrome (to detect collagen deposition) and the extent of fibrosis (represented by a blue stain) was measured by histomorphometric analysis using ImageJ software (version 1.51 h, National Institutes of Health, USA). To maintain uniformity between samples, the length of the vastus medialis taken at multiple depths ranging from 1.0 mm-3.0 mm serves as a reference between tissue sections to determine the depth of sectioning. For fibrotic quantification, average muscle fibrosis area at each depth was scored and normalised with the area of the rectus femoris. Total area of muscle is determined by calculating the average area of rectus femoris at each depth.
Immune cell profiling and PAX7+ cell quantification with flow cytometry: 4, 6 or 8 days after treatment with either 0.5 μg of hrNAMPT (1) delivered by fibrin hydrogel or control fibrin hydrogel only, mice were euthanised via CO2 asphyxiation. The defect site and associated proximal and distal segment of the quadricep muscles were isolated and placed into 890 μl of complete RPMI (with 10% FBS and 2 mM Glutamax, Life Technologies). The tissue was minced with surgical scissors and 100 μl of 10 mg/ml Collagenase II (Sigma-Aldrich) and 10 μl of 10 mg/ml DNAse I (Biolabs), while 100 μl of dispase II (10 mg/ml) was added into the digestion for PAX7 acquisition. The mixture was vortexed and incubated at 37° C. for 45 min. The collagenase was then inactivated with 500 μl ice-cold PBS, 5% FBS, 5 mM EDTA. The mixture was strained subsequently through 70 μm and 40 μm filters. The cell suspension was further diluted with 1 ml complete RPMI and centrifuged for 10 min at 300×g. The supernatant was discarded and the pellet was resuspended in 250 μl complete RPMI and aliquoted into wells of a 96-well U bottom plate for antibody staining. The cell solutions were centrifuged, supernatant discarded, and washed with PBS. The cell viability stain used was 100 μl of Zombie Aqua (Biolegend) Live-Dead dye diluted in PBS (1:400 dilution) and incubated for 30 min at 4° C. The cells were then blocked with FcX (anti-CD16/32 antibodies, Biolegend, 1 μg/ml) flow cytometry buffer (PBS, 5% FBS). The cells were kept for 20 min at 4° C., washed with flow cytometry buffer and centrifuged. […] For internal Foxp3 staining in the T cell panel, cells were fixed with 100 μl fixation/permeabilisation solution (42080, Biolegend) for 35 min. Then cells were washed and resuspended in 100 μl of flow cytometry buffer with 0.5% Saponin and 5 μg/ml anti-Foxp3 (clone 3G3, #35-5773-U100) for 45 min. Cells were then resuspended in flow cytometry buffer (100 μl) and acquired on the Fortessa x20 (Beckman Coulter). […] Cells were stained for 45 min on ice and washed as described above.

[4] = fibrin hydrogel delivery, 10 days post treatment
[5] = single dose 0.5 μg in fibrin hydrogel at the point of injury, 10 days post treatment, vs fibrin only

For N#CN=C(NCCCCCCOc1ccc(Cl)cc1)Nc1ccncc1 [GMX1778], the “effect on NAMPT-induced increase in myoblast proliferation” value (from here on “effect on NAMPT-induced increase”) (C2C12 myoblasts; EdU incorporation) was “does not impact its effect on myoblast proliferation; also recorded: did not affect the increased myoblast proliferation” and the “effect on basal level of C2C12 proliferation” value (C2C12 myoblasts; drug alone, EdU incorporation) was “no negative effect on the basal level of C2C12 proliferation”.
O=C(NCC(=O)N1CC[C@H](N[C@H]2CC[C@@](O)(c3ccc(-c4ncccn4)cn3)CC2)C1)c1cccc(C(F)(F)F)c1 [PF-4136309] was tested, and the “effect on NAMPT-induced increase” value (C2C12 myoblasts; EdU incorporation) was “does not hinder NAMPT's stimulatory effect on myoblast proliferation”.
In the case of CCCCOCCOc1ccc(-c2ccc3c(c2)/C=C(/C(=O)Nc2ccc([S@@+]([O-])Cc4cncn4CCC)cc2)CCCN3CC(C)C)cc1 [cenicriviroc], the “effect on NAMPT-induced increase” value (C2C12 myoblasts; EdU incorporation) is reported as “abolishes NAMPT's pro-proliferative response; also recorded: proliferative response was blocked”.
CCL2/MCP-1: CCR2 ligand was tested, and the “myoblast proliferation (EdU incorporation), factor alone” value (C2C12 myoblasts; exogenously added factor vs control, listed as mrCCL2) was “failed to increase proliferative rates beyond that of the control”.
With “NAMPT422-471: Truncated hNAMPTcif, residues 422-471 of full length NAMPT, SEQ ID NO: 33 (His-tagged: SEQ ID NO: 34) (NKRSKKGRLSLHRTPAGNFVTLEEGKGDLEEYGQDLLHTVFKNGKVTKS)” the “cell proliferation, percentage increase vs PBS-treated control” value [1] was “lower cellular proliferation of muscle progenitor cells compared to full-length NAMPT and the other NAMPT variants”.
“NAMPT436-491: Truncated hNAMPTcif, residues 436-491 of full length NAMPT, SEQ ID NO: 10 (His-tagged: SEQ ID NO: 11) (PAGNFVTLEEGKGDLEEYGQDLLHTVFKNGKVTKSYSFDEIRKNAQLNIELEAAHH)” was tested, and the “cell proliferation, percentage increase vs PBS-treated control” value [1] was “lower cellular proliferation of muscle progenitor cells compared to full-length NAMPT and the other NAMPT variants”.
“Nicotinamide phosphoribosyltransferase [NAMPT]” was tested, and the “TLR4 activation (equivalent LPS concentration)” value (TLR4) was “activates TLR4”, the “endothelial cell proliferation, percentage increase vs PBS-treated control” value [2] was “still stimulated endothelial cell proliferation above negative control” and the “number of centrally nucleated de novo muscle fibres” value ([3]; 0.5 μg in fibrin, 6 days post treatment, vs fibrin only) was “significant increase”. The “restoration of muscle architecture” value ([3]; delivered into the muscle defect via fibrin hydrogel, vs fibrin only control hydrogel) was “fully restore muscle architecture”, the “fibrotic tissue (Masson's trichrome)” value [3, 4] was “significant reduction in fibrotic tissue” and the “regenerated muscle area (Masson's trichrome)” value [3, 4] was “significantly increased the regenerated muscle area”. The “decrease in average fibrotic area” value [3, 5] was 34.76±9.32% and the “increase in average muscle area” value [3, 5] was 3.276±0.4926 mm^2.
For maraviroc, the “effect on NAMPT-induced increase” value (C2C12 myoblasts; EdU incorporation) was “abolishes NAMPT's pro-proliferative response; also recorded: proliferative response was blocked”.
